What was measured:
HH = assay: cells; format: functional, cell-based; details: Homo sapiens
Description: Antiproliferative activity against human HH cells assessed as inhibition of cell growth by MTT assay

Histone deacetylase 3 [1] = target: T1, Histone deacetylase 3 (Homo sapiens, UniProt O15379); assay: Inhibition of HDAC3 (unknown origin) using p53 residues 379 to 382 [RHKK(Ac)] as fluorogenic substrate assessed as residual activity at 1.11 x 10^-6M (reference value: 103.08%); details: dose 1.1 10^-6M
Histone deacetylase 3 [2] = target: T1, Histone deacetylase 3; assay: Inhibition of HDAC3 (unknown origin) using p53 residues 379 to 382 [RHKK(Ac)] as fluorogenic substrate assessed as residual activity at 3.70 x 10^-7M (reference value: 103.08%); details: dose 3.7 10^-7M
[3] = target: Histone deacetylase 4 (Homo sapiens) (UniProt P56524); assay: Inhibition of HDAC4 (unknown origin) assessed as residual activity at 3.33 x 10^-6M (reference value: 98.90%); details: dose 3.33 10^-6M
Histone deacetylase 4 (Homo sapiens), sequence (P56524 whole entry): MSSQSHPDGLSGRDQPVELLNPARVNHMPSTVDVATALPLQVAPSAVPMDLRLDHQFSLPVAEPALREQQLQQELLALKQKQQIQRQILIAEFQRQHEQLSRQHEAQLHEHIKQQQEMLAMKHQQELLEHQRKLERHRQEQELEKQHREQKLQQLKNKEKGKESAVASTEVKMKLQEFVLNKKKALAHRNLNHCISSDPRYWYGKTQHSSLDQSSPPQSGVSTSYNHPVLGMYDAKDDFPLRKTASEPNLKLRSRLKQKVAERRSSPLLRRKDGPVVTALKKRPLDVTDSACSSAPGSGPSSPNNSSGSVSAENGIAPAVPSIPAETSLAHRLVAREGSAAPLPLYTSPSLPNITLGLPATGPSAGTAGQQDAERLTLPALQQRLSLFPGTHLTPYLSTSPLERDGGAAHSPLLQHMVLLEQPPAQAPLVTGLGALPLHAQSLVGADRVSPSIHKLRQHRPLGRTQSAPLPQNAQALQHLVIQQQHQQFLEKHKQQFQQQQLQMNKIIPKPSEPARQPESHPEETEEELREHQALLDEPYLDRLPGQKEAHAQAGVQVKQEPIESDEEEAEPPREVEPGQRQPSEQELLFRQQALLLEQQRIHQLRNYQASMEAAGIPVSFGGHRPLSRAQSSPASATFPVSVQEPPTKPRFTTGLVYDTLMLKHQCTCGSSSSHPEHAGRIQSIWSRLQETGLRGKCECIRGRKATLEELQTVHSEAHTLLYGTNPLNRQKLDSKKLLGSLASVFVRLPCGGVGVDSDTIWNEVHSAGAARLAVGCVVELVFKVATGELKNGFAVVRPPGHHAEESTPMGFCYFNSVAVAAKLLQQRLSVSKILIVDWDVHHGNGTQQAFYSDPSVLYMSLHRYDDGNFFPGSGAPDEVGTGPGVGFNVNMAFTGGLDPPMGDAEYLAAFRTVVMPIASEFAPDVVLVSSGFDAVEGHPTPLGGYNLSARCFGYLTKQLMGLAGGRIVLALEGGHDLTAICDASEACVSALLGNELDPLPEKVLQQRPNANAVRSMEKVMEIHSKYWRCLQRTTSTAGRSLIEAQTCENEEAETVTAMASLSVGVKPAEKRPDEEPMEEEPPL

[4] = target: Histone deacetylase 5 (Homo sapiens) (UniProt Q9UQL6); assay: Inhibition of HDAC5 (unknown origin) assessed as residual activity at 3.70 x 10^-7M (reference value: 100%); details: dose 3.7 10^-7M
Histone deacetylase 5 (Homo sapiens), sequence (Q9UQL6 whole entry): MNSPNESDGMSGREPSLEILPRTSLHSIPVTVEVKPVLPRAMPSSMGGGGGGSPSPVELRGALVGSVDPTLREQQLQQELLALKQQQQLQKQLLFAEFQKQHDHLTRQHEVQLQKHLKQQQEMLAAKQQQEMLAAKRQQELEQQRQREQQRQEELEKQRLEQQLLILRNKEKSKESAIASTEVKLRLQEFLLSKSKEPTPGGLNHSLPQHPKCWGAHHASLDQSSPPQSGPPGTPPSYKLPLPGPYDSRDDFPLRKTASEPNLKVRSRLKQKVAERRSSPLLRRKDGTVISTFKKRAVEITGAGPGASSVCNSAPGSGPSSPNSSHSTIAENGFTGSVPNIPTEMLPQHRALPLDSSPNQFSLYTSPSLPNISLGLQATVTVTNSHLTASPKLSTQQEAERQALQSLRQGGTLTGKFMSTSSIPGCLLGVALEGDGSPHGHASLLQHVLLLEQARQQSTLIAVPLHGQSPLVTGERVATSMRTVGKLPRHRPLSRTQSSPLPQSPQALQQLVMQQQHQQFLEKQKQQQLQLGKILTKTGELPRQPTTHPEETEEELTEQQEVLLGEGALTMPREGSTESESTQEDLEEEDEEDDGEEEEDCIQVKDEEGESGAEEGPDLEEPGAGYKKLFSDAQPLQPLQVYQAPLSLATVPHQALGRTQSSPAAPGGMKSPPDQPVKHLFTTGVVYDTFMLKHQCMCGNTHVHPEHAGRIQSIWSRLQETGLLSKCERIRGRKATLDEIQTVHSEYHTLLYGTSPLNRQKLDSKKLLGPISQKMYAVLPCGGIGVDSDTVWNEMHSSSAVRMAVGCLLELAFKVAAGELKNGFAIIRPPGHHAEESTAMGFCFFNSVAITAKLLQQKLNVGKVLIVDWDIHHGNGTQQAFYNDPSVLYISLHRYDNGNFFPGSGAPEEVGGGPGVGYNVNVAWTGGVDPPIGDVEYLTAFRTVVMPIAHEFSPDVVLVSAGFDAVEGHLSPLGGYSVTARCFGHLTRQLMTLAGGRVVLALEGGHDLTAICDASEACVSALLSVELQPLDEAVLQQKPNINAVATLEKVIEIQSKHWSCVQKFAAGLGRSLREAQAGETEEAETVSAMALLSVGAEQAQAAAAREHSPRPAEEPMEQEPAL

[5] = target: T2, Histone deacetylase 7 (Homo sapiens) (UniProt Q8WUI4); assay: Inhibition of HDAC7 (unknown origin) assessed as residual activity at 1.1 x 10^-6M (reference value: 102.66%); details: dose 1.1 10^-6M
T2 sequence (whole entry): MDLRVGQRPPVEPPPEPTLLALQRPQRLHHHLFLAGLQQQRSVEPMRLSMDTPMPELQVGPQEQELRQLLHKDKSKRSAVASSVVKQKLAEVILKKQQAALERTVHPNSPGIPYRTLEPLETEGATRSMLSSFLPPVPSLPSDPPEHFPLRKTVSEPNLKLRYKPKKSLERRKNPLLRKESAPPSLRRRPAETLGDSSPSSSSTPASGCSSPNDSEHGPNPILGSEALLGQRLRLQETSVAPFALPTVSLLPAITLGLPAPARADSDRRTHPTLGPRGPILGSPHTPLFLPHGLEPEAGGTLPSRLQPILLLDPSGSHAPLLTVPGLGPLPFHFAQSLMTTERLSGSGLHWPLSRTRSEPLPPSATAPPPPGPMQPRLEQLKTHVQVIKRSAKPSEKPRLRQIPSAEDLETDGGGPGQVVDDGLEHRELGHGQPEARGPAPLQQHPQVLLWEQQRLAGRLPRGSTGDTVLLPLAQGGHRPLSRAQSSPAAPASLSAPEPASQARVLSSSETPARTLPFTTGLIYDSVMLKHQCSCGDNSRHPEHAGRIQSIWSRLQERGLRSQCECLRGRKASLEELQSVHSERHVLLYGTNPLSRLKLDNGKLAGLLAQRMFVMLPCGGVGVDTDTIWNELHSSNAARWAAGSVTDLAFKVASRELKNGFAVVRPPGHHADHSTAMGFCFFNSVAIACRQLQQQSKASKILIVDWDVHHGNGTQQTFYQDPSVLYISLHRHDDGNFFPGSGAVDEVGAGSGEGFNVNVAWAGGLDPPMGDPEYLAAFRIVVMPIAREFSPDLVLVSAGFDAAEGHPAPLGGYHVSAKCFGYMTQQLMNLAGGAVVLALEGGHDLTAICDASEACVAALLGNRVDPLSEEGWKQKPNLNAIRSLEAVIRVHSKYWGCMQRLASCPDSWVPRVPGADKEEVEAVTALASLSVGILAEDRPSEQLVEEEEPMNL

[6] = target: T2, Histone deacetylase 7 (Homo sapiens); assay: Inhibition of HDAC7 (unknown origin) assessed as residual activity at 4.12 x 10^-8M (reference value: 102.66%); details: dose 4.12 10^-8M
[7] = target: T2, Histone deacetylase 7 (Homo sapiens); assay: Inhibition of HDAC7 (unknown origin) assessed as residual activity at 1.52 x 10^-9M (reference value: 102.66%); details: dose 1.52 10^-9M
[8] = target: T3, Histone deacetylase 8 (Homo sapiens) (UniProt Q9BY41); assay: Inhibition of HDAC8 (unknown origin) assessed as residual activity at 4.12 x 10^-8M (reference value: 100%); details: dose 4.12 10^-8M
T3 sequence (whole entry): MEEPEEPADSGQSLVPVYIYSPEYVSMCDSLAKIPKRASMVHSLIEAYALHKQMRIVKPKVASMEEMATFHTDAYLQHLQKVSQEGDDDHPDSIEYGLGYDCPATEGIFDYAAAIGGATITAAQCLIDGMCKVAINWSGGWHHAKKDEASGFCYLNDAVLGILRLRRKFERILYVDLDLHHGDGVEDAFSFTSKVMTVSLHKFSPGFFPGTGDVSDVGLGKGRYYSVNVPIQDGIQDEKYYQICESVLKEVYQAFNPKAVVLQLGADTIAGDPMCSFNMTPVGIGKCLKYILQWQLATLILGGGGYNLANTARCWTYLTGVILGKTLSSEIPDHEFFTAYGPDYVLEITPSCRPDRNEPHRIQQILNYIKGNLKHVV

[9] = target: T3, Histone deacetylase 8 (Homo sapiens); assay: Inhibition of HDAC8 (unknown origin) assessed as residual activity at 1.37 x 10^-8M (reference value: 100%); details: dose 1.37 10^-8M
[10] = target: T4, Polyamine deacetylase HDAC10 (Homo sapiens) (UniProt Q969S8); assay: Inhibition of HDAC10 (unknown origin) assessed as residual activity at 3.70 x 10^-7M (reference value: 101.54%); details: dose 3.7 10^-7M
T4 sequence (whole entry): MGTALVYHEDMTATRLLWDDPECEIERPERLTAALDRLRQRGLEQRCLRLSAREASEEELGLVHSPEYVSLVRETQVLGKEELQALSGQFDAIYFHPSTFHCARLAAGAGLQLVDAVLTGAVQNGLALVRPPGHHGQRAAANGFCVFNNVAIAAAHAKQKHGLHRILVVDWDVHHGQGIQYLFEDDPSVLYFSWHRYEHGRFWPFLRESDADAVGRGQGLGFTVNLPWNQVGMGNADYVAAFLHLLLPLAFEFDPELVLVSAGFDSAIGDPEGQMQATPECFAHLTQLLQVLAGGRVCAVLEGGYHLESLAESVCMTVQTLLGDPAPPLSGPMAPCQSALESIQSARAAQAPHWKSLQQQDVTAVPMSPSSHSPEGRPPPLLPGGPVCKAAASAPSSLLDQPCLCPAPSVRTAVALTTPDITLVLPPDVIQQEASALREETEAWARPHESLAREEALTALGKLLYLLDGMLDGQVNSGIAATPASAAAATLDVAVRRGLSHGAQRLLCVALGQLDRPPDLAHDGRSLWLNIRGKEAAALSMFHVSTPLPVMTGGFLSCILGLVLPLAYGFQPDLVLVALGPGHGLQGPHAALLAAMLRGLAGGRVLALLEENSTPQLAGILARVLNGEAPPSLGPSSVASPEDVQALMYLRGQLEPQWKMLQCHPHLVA

[11] = target: T4, Polyamine deacetylase HDAC10 (Homo sapiens); assay: Inhibition of HDAC10 (unknown origin) assessed as residual activity at 1.52 x 10^-9M (reference value: 101.54%); details: dose 1.52 10^-9M
Histone deacetylase 2 = Histone deacetylase 2 (Homo sapiens, UniProt Q92769); assay: Inhibition of HDAC2 (unknown origin)
Histone deacetylase 2, sequence (Q92769 whole entry): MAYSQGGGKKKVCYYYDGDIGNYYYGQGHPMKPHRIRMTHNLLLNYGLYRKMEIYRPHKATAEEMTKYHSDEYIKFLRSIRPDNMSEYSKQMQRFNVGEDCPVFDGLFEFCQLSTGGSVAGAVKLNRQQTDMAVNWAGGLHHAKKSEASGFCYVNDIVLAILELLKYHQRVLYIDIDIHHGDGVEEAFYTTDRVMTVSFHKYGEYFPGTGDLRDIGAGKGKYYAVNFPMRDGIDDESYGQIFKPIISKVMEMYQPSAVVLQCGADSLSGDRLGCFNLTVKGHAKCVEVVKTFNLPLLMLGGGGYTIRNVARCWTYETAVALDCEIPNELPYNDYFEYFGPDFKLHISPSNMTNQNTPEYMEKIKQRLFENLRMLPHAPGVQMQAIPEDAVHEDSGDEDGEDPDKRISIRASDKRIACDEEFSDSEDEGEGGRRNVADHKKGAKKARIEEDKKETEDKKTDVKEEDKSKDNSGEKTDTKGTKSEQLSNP

T1 sequence (O15379 whole entry, the tested form may be a part): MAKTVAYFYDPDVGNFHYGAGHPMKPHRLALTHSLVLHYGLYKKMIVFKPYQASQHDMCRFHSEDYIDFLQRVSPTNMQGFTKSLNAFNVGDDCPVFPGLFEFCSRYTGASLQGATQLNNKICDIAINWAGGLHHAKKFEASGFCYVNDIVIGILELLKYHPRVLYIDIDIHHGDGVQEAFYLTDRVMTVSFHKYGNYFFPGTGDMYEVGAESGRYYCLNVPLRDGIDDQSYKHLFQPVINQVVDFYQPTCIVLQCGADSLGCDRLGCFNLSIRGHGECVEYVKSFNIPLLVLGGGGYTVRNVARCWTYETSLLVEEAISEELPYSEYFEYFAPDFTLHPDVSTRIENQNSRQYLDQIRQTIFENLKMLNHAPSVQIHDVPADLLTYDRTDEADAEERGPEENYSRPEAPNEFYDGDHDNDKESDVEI

NC(=O)c1cccc2[nH]c(-c3ccc(NCc4ccc(C(=O)Nc5ccccc5N)cc4)cc3)nc12
IC50 (HH): 1010 nM | Activity (Histone deacetylase 3 [1]): 21.7% | Activity (Histone deacetylase 3 [2]): 54.9% | Activity [3]: 94.3% | Activity [4]: 77.6% | Activity [5]: 78.2% | Activity [6]: 87% | Activity [7]: 103% | Activity [8]: 107% | Activity [9]: 104% | Activity [10]: 94.8% | Activity [11]: 97.3% | IC50 (Histone deacetylase 2): 147 nM
